US9980943B2, “Methods of treating muscular dystrophy” (BOARD OF REGENTS OF THE NEVADA SYSTEM OF HIGHER EDUCATION, …, priority 2013, dated 2018)

Legend:
Type in all cases: cell-based, mouse
[1] = test system: α7 integrin (LacZ reporter in α7βgal+/− myoblasts); assay: Myoblast α7+/LacZ integrin FDG assay (Burkin assay in myoblasts, 96-well); conditions: 96-well; for Burkin Assay in Myoblasts, value relative to DMSO: SU9516 analogs, N=3-6; for Burkin Assay in Myoblasts, signal relative to DMSO: α7+/LacZ myoblasts
[2] = test system: β-galactosidase in CMV-LacZ C2C12 myoblasts; assay: CMV-LacZ secondary screen in C2C12 myoblasts (β-Gal stabilizing assay); conditions: for CMV-LACZ in Myoblasts, value relative to DMSO: SU9516 analogs, C2C12 CMV-LacZ, N=2; for CMV-LACZ in Myoblasts (β-galactosidase activity relative to DMSO): CMV-LacZ C2C12 myoblasts
Method in brief: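 Stable CMV-LacZ C2C12 clone; six-point curve 0.5–40 μM; duplicates.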

[3] = test system: α7 integrin (LacZ reporter in α7+/LacZ myotubes); assay: Myotube α7 integrin FDG assay (Burkin assay in myotubes, 96-well); conditions: for Burkin Assay in Myotubes, value relative to DMSO: SU9516 analogs, 96-well, N=3-6
[4] = test system: β-galactosidase in CMV-LacZ C2C12 myotubes; assay: CMV-LacZ secondary screen in C2C12 myotubes (β-Gal stabilizing assay); conditions: for CMV-LACZ in Myotubes, value relative to DMSO: SU9516 analogs, C2C12 CMV-LacZ, N=2; for CMV-LACZ in Myotubes, signal relative to DMSO: C2C12 CMV-LacZ myotubes, fold relative to DMSO
Method in brief: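 A secondary screen identifies compounds that stabilize β-gal independently of the native promoter, using CMV-LacZ C2C12 cells. Curves span 0.5–40 μM at six levels, in duplicate.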

## O=C1C(c2c(O)[nH]c3ccccc23)=Nc2ccccc21 [NCGC00179302-02]
[1]; 0.5 uM
  Burkin Assay in Myoblasts, value relative to DMSO: 1.061
[1]; 1 uM
  Burkin Assay in Myoblasts, value relative to DMSO: 1.0859
[1]; 5 uM
  Burkin Assay in Myoblasts, value relative to DMSO: 0.606
[1]; 10 uM
  Burkin Assay in Myoblasts, value relative to DMSO: 0.7163
[1]; 20 uM
  Burkin Assay in Myoblasts, value relative to DMSO: 0.843
[1]; 40 uM
  Burkin Assay in Myoblasts, value relative to DMSO: 0.8067
[2]; 0.5 uM
  CMV-LACZ in Myoblasts, value relative to DMSO: 1.1867
[2]; 5 uM
  CMV-LACZ in Myoblasts, value relative to DMSO: 2.4679
[2]; 10 uM
  CMV-LACZ in Myoblasts, value relative to DMSO: 1.6628
[2]; 20 uM
  CMV-LACZ in Myoblasts, value relative to DMSO: 1.0247
[2]; 40 uM
  CMV-LACZ in Myoblasts, value relative to DMSO: 1.2873
[3]; 0.5 uM
  Burkin Assay in Myotubes, value relative to DMSO: 0.9349
[3]; 1 uM
  Burkin Assay in Myotubes, value relative to DMSO: 0.9377
[3]; 5 uM
  Burkin Assay in Myotubes, value relative to DMSO: 0.8181
[3]; 10 uM
  Burkin Assay in Myotubes, value relative to DMSO: 0.7913
[3]; 20 uM
  Burkin Assay in Myotubes, value relative to DMSO: 0.682
[3]; 40 uM
  Burkin Assay in Myotubes, value relative to DMSO: 0.6871
[4]; 0.5 uM
  CMV-LACZ in Myotubes, value relative to DMSO: 0.9618
[4]; 1 uM
  CMV-LACZ in Myotubes, value relative to DMSO: 0.9736
[4]; 5 uM
  CMV-LACZ in Myotubes, value relative to DMSO: 1.1533
[4]; 10 uM
  CMV-LACZ in Myotubes, value relative to DMSO: 0.9196
[4]; 20 uM
  CMV-LACZ in Myotubes, value relative to DMSO: 1.0030
[4]; 40 uM
  CMV-LACZ in Myotubes, value relative to DMSO: 1.1410

## O=C(COc1ccc(Cl)cc1)N1CCN(C2CCCC2)CC1.O=C(O)C(=O)O [MLS001221318-01]
[1]; 0.5 uM
  Burkin Assay in Myoblasts, signal relative to DMSO: 1.118
[1]; 1 uM
  Burkin Assay in Myoblasts, signal relative to DMSO: 1.283
[1]; 5 uM
  Burkin Assay in Myoblasts, signal relative to DMSO: 1.01
[1]; 10 uM
  Burkin Assay in Myoblasts, signal relative to DMSO: 0.9944
[1]; 20 uM
  Burkin Assay in Myoblasts, signal relative to DMSO: 1.054
[1]; 40 uM
  Burkin Assay in Myoblasts, signal relative to DMSO: 1.075
[2]; 0.5 uM
  CMV-LACZ in Myoblasts (β-galactosidase activity relative to DMSO): 0.8528
[2]; 1 uM
  CMV-LACZ in Myoblasts (β-galactosidase activity relative to DMSO): 1.0538
[2]; 5 uM
  CMV-LACZ in Myoblasts (β-galactosidase activity relative to DMSO): 1.0999
[2]; 10 uM
  CMV-LACZ in Myoblasts (β-galactosidase activity relative to DMSO): 0.9955
[2]; 20 uM
  CMV-LACZ in Myoblasts (β-galactosidase activity relative to DMSO): 1.0181
[2]; 40 uM
  CMV-LACZ in Myoblasts (β-galactosidase activity relative to DMSO): 1.5641
[3]; 0.5 uM
  Burkin Assay in Myotubes, α7 integrin LacZ reporter signal relative to DMSO: 1.133
[3]; 1 uM
  Burkin Assay in Myotubes, α7 integrin LacZ reporter signal relative to DMSO: 1.082
[3]; 5 uM
  Burkin Assay in Myotubes, α7 integrin LacZ reporter signal relative to DMSO: 0.9266
[3]; 10 uM
  Burkin Assay in Myotubes, α7 integrin LacZ reporter signal relative to DMSO: 0.9591
[3]; 20 uM
  Burkin Assay in Myotubes, α7 integrin LacZ reporter signal relative to DMSO: 0.8071
[3]; 40 uM
  Burkin Assay in Myotubes, α7 integrin LacZ reporter signal relative to DMSO: 0.7186
[4]; 0.5 uM
  CMV-LACZ in Myotubes, signal relative to DMSO: 1.0037
[4]; 1 uM
  CMV-LACZ in Myotubes, signal relative to DMSO: 1.4059
[4]; 5 uM
  CMV-LACZ in Myotubes, signal relative to DMSO: 1.1337
[4]; 10 uM
  CMV-LACZ in Myotubes, signal relative to DMSO: 0.9944
[4]; 20 uM
  CMV-LACZ in Myotubes, signal relative to DMSO: 1.2212
[4]; 40 uM
  CMV-LACZ in Myotubes, signal relative to DMSO: 0.8576

## O=C(O)C(Cc1ccc(O)cc1)N1C(=O)c2ccccc2C1=O (stereo not shown) [MLS001165394-01]
[1]; 0.5 uM
  Burkin Assay in Myoblasts, signal relative to DMSO: 1.149
[1]; 1 uM
  Burkin Assay in Myoblasts, signal relative to DMSO: 1.201
[1]; 5 uM
  Burkin Assay in Myoblasts, signal relative to DMSO: 1.159
[1]; 10 uM
  Burkin Assay in Myoblasts, signal relative to DMSO: 0.951
[1]; 20 uM
  Burkin Assay in Myoblasts, signal relative to DMSO: 1.035
[1]; 40 uM
  Burkin Assay in Myoblasts, signal relative to DMSO: 1.007
[2]; 0.5 uM
  CMV-LACZ in Myoblasts (β-galactosidase activity relative to DMSO): 1.0655
[2]; 1 uM
  CMV-LACZ in Myoblasts (β-galactosidase activity relative to DMSO): 1.0015
[2]; 5 uM
  CMV-LACZ in Myoblasts (β-galactosidase activity relative to DMSO): 1.0941
[2]; 10 uM
  CMV-LACZ in Myoblasts (β-galactosidase activity relative to DMSO): 0.9792
[2]; 20 uM
  CMV-LACZ in Myoblasts (β-galactosidase activity relative to DMSO): 0.8663
[2]; 40 uM
  CMV-LACZ in Myoblasts (β-galactosidase activity relative to DMSO): 0.9570
[3]; 0.5 uM
  Burkin Assay in Myotubes, α7 integrin LacZ reporter signal relative to DMSO: 1.068
[3]; 1 uM
  Burkin Assay in Myotubes, α7 integrin LacZ reporter signal relative to DMSO: 1.135
[3]; 5 uM
  Burkin Assay in Myotubes, α7 integrin LacZ reporter signal relative to DMSO: 1.239
[3]; 10 uM
  Burkin Assay in Myotubes, α7 integrin LacZ reporter signal relative to DMSO: 0.9854
[3]; 20 uM
  Burkin Assay in Myotubes, α7 integrin LacZ reporter signal relative to DMSO: 1.188
[3]; 40 uM
  Burkin Assay in Myotubes, α7 integrin LacZ reporter signal relative to DMSO: 1.034
[4]; 0.5 uM
  CMV-LACZ in Myotubes, signal relative to DMSO: 0.9232
[4]; 1 uM
  CMV-LACZ in Myotubes, signal relative to DMSO: 1.1558
[4]; 5 uM
  CMV-LACZ in Myotubes, signal relative to DMSO: 0.9589
[4]; 10 uM
  CMV-LACZ in Myotubes, signal relative to DMSO: 0.9045
[4]; 20 uM
  CMV-LACZ in Myotubes, signal relative to DMSO: 1.0344
[4]; 40 uM
  CMV-LACZ in Myotubes, signal relative to DMSO: 0.9544

## CC1(C)Cc2ccccc2-c2nc3n(c(=O)c21)CCS3 [MLS000711491-01]
[1]; 0.5 uM
  Burkin Assay in Myoblasts, signal relative to DMSO: 1.214
[1]; 1 uM
  Burkin Assay in Myoblasts, signal relative to DMSO: 1.0159
[1]; 5 uM
  Burkin Assay in Myoblasts, signal relative to DMSO: 1.02
[1]; 10 uM
  Burkin Assay in Myoblasts, signal relative to DMSO: 1.024
[1]; 20 uM
  Burkin Assay in Myoblasts, signal relative to DMSO: 0.7949
[1]; 40 uM
  Burkin Assay in Myoblasts, signal relative to DMSO: 0.5793
[2]; 0.5 uM
  CMV-LACZ in Myoblasts (β-galactosidase activity relative to DMSO): 1.0889
[2]; 1 uM
  CMV-LACZ in Myoblasts (β-galactosidase activity relative to DMSO): 1.1060
[2]; 5 uM
  CMV-LACZ in Myoblasts (β-galactosidase activity relative to DMSO): 0.9088
[2]; 10 uM
  CMV-LACZ in Myoblasts (β-galactosidase activity relative to DMSO): 1.0199
[2]; 20 uM
  CMV-LACZ in Myoblasts (β-galactosidase activity relative to DMSO): 1.5063
[2]; 40 uM
  CMV-LACZ in Myoblasts (β-galactosidase activity relative to DMSO): 0.7800
[3]; 0.5 uM
  Burkin Assay in Myotubes, α7 integrin LacZ reporter signal relative to DMSO: 1.07
[3]; 1 uM
  Burkin Assay in Myotubes, α7 integrin LacZ reporter signal relative to DMSO: 1.062
[3]; 5 uM
  Burkin Assay in Myotubes, α7 integrin LacZ reporter signal relative to DMSO: 0.9629
[3]; 10 uM
  Burkin Assay in Myotubes, α7 integrin LacZ reporter signal relative to DMSO: 0.9462
[3]; 20 uM
  Burkin Assay in Myotubes, α7 integrin LacZ reporter signal relative to DMSO: 0.671
[3]; 40 uM
  Burkin Assay in Myotubes, α7 integrin LacZ reporter signal relative to DMSO: 0.579
[4]; 0.5 uM
  CMV-LACZ in Myotubes, signal relative to DMSO: 0.9495
[4]; 1 uM
  CMV-LACZ in Myotubes, signal relative to DMSO: 0.9095
[4]; 5 uM
  CMV-LACZ in Myotubes, signal relative to DMSO: 0.9993
[4]; 10 uM
  CMV-LACZ in Myotubes, signal relative to DMSO: 0.8645
[4]; 20 uM
  CMV-LACZ in Myotubes, signal relative to DMSO: 1.1318
[4]; 40 uM
  CMV-LACZ in Myotubes, signal relative to DMSO: 0.9929

## COc1cc(OC)c(/C=C2/C(=O)Nc3ccccc32)c(OC)c1 [NCGC00015546-04]
[1]; 0.5 uM
  Burkin Assay in Myoblasts, value relative to DMSO: 0.8923
[1]; 1 uM
  Burkin Assay in Myoblasts, value relative to DMSO: 0.9228
[1]; 5 uM
  Burkin Assay in Myoblasts, value relative to DMSO: 0.3771
[1]; 10 uM
  Burkin Assay in Myoblasts, value relative to DMSO: 0.214
[1]; 20 uM
  Burkin Assay in Myoblasts, value relative to DMSO: 0.1937
[1]; 40 uM
  Burkin Assay in Myoblasts, value relative to DMSO: 0.1497
[2]; 0.5 uM
  CMV-LACZ in Myoblasts, value relative to DMSO: 1.1442
[2]; 5 uM
  CMV-LACZ in Myoblasts, value relative to DMSO: 1.4889
[2]; 10 uM
  CMV-LACZ in Myoblasts, value relative to DMSO: 1.2439
[2]; 20 uM
  CMV-LACZ in Myoblasts, value relative to DMSO: 0.8083
[2]; 40 uM
  CMV-LACZ in Myoblasts, value relative to DMSO: 0.5873
[3]; 0.5 uM
  Burkin Assay in Myotubes, value relative to DMSO: 0.9443
[3]; 1 uM
  Burkin Assay in Myotubes, value relative to DMSO: 1.051
[3]; 5 uM
  Burkin Assay in Myotubes, value relative to DMSO: 0.8529
[3]; 10 uM
  Burkin Assay in Myotubes, value relative to DMSO: 0.8253
[3]; 20 uM
  Burkin Assay in Myotubes, value relative to DMSO: 0.7881
[3]; 40 uM
  Burkin Assay in Myotubes, value relative to DMSO: 0.7965
[4]; 0.5 uM
  CMV-LACZ in Myotubes, value relative to DMSO: 1.1555
[4]; 1 uM
  CMV-LACZ in Myotubes, value relative to DMSO: 1.1427
[4]; 5 uM
  CMV-LACZ in Myotubes, value relative to DMSO: 1.0553
[4]; 10 uM
  CMV-LACZ in Myotubes, value relative to DMSO: 1.1513
[4]; 20 uM
  CMV-LACZ in Myotubes, value relative to DMSO: 1.0230
[4]; 40 uM
  CMV-LACZ in Myotubes, value relative to DMSO: 1.0700
